Data on 43 molecules can be found in US20260198493A1, “HYDRAZIDE COMPOUND AND AGRICULTURAL/HORTICULTURAL FUNGICIDE” (Nippon Soda Co., Ltd., priority 2022, published 2026).

For assay [1], the system named is Botrytis cinerea. Format: cell-based. The settings on record: 120 h, 25 ppm by volume, Vogel medium, 20° C., five days, dark, read-out: growth inhibition ratio.
The test system of assay [2] is Glomerella cingulata. The assay is described as follows: Fungicidal effect test against fungi causing grape ripe rot disease. As to conditions: Colletotrichum gloeosporioides, 72 h, read-out: growth inhibition ratio.
Assay [3] concerns Colletotrichum acutatum. The assay can be described thus: Fungicidal effect test against fungi causing apple anthracnose. The settings on record: 96 h, read-out: growth inhibition ratio.

As for `Cc1ccc(CN(C)NC(=O)c2cc(C)nnc2Oc2cccc(C3CC3)c2F)c(C)c1` [b-2], the inhibition of growth at 25 ppm in assay [1], in assay [2] and in assay [3] was at least 75% in each case.
As for `Cc1ccc(CN(NC(=O)c2cc(C)nnc2Oc2cccc(C3CC3)c2F)C(=O)C(F)(F)F)c(C)c1` [b-4], the inhibition of growth at 25 ppm in assay [1], in assay [2] and in assay [3] was at least 75% throughout.
`CC(=O)N(Cc1ccc(C)cc1C)NC(=O)c1cc(Cl)nnc1Oc1cccc(C(F)(F)F)c1` [b-11]: the inhibition of growth at 25 ppm in assay [1], in assay [2] and in assay [3] was at least 75% each time.
As to `Cc1cc(C(=O)NN(C=O)Cc2ccc(Cl)cc2Cl)c(Oc2cccc(C3CC3)c2F)nn1` [b-12], the inhibition of growth at 25 ppm in assay [1], in assay [2] and in assay [3] was at least 75% in each case.
For `COC(=O)N(Cc1ccc(C)cc1C)NC(=O)c1cc(C)nnc1Oc1cccc(C2CC2)c1F` [b-17], the inhibition of growth at 25 ppm in assay [1], in assay [2] and in assay [3] was at least 75% each time.
Consider `Cc1ccc(CN(NC(=O)c2cc(C)nnc2Oc2cccc(C3CC3)c2F)C(=O)C(C)(C)C)c(C)c1` [b-19], for which the inhibition of growth at 25 ppm in assay [3] is at least 75%.
Take `Cc1ccc(CN(NC(=O)c2cc(C)nnc2Oc2cccc(C3CC3)c2F)C(=O)c2ccccc2)c(C)c1` [b-24]: the inhibition of growth at 25 ppm in assay [1], in assay [2] and in assay [3] was at least 75% in each case.
With `Cc1ccc(CN(NC(=O)c2cc(C)nnc2Oc2cccc(C3CC3)c2F)C(=O)c2cnn(C)c2)c(C)c1` [b-39], the inhibition of growth at 25 ppm in assay [1], in assay [2] and in assay [3] was at least 75% in each case.
Turning to `COC(=O)N(Cc1ccc(O)cc1C)NC(=O)c1cc(C)nnc1Oc1cccc(C2CC2)c1F` [b-41], the inhibition of growth at 25 ppm in assay [2] and in assay [3] was at least 75% in each case.
For `Cc1ccc(CN(NC(=O)c2cc(C)nnc2Oc2cccc(C3CC3)c2F)C(=O)N(C)C)c(C)c1` [b-47], the inhibition of growth at 25 ppm in assay [2] and in assay [3] was at least 75% throughout.
On to `Cc1ccc(CN(NC(=O)c2cc(C)ncc2Oc2cccc(C3CC3)c2F)C(=O)N(C)C)c(C)c1` [b-48], for which the inhibition of growth at 25 ppm in assay [1], in assay [2] and in assay [3] was at least 75% each time.
With `Cc1ccc(CN(NC(=O)c2nc(C)ncc2Oc2cccc(C3CC3)c2F)C(=O)N(C)C)c(C)c1` [b-49], the inhibition of growth at 25 ppm in assay [2] and in assay [3] was at least 75% in each case.
As for `COC(=O)N(Cc1ccc(C)cc1C)NC(=O)c1cc(C)nnc1Oc1ccc(C2CC2)cc1` [b-54], the inhibition of growth at 25 ppm in assay [1], in assay [2] and in assay [3] was at least 75% throughout.
Turning to `Cc1ccc(CN(NC(=O)c2cc(C)nnc2Oc2cccc(C3CC3)c2F)C(=O)C(=O)N(C)C)c(C)c1` [b-56], the inhibition of growth at 25 ppm in assay [2] and in assay [3] was at least 75% throughout.
`COC(=O)N(Cc1ccc(C)cc1C)NC(=O)c1cc(C)nnc1Oc1ccc2ccccc2c1` [b-61]: the inhibition of growth at 25 ppm in assay [1], in assay [2] and in assay [3] was at least 75% each time.
In the case of `COC(=O)N(Cc1ccc(C)cc1C)NC(=NO)c1cc(C)nnc1Oc1cccc(C2CC2)c1F` [b-63], the inhibition of growth at 25 ppm in assay [1], in assay [2] and in assay [3] was at least 75% each time.
Consider `COc1ccc(CN(NC(=O)c2cc(C)nnc2Oc2cccc(C3CC3)c2F)c2cccc(C)c2)cc1` [b-73], for which the inhibition of growth at 25 ppm in assay [2] was at least 75%.
For the molecule `COC(=O)N(Cc1ccc(C)cc1C)NC(=O)c1cc(C)nnc1Sc1cccc(C(F)(F)F)c1` [b-78, Methyl 1-(2,4-dimethylbenzyl)-2-(6-methyl-3-((3-(trifluoromethyl)phenyl)thio)pyridazine-4-carbonyl)hydrazine-1-carboxylate], the inhibition of growth at 25 ppm in assay [1], in assay [2] and in assay [3] was at least 75% in each case.
Take `COC(=O)C(=O)N(Cc1ccc(C)cc1C)NC(=O)c1cc(C)nnc1Oc1cccc(C2CC2)c1F` [b-82]: the inhibition of growth at 25 ppm in assay [1], in assay [2] and in assay [3] was at least 75% each time.
In the case of `COC(=O)N(CCCc1ccc(C)cc1)NC(=O)c1cc(C)nnc1Oc1cccc(C2CC2)c1F` [b-89], the inhibition of growth at 25 ppm in assay [1], in assay [2] and in assay [3] was at least 75% throughout.
On to `COC(=O)N(Cc1ccc(C)cc1C)NC(=O)c1cc(C)nnc1Oc1ccc2cccnc2c1` [b-97], for which the inhibition of growth at 25 ppm in assay [2] is at least 75%.
Regarding `COC(=O)N(Cc1ccc(C)cc1C)NC(=O)c1cc(C)nnc1Oc1ccc(Br)cc1F` [b-98], in assay [1], the inhibition of growth at 25 ppm is at least 75%.
On the same count and under the same terms, to `COC(=O)N(Cc1ccc(C)cc1C)NC(=O)c1cc(C)nnc1Oc1ccc(Cl)cc1F` [b-99] belongs at least 75%.
For the molecule `COC(=O)N(Cc1sc(Cl)nc1Cl)NC(=O)c1cc(C)nnc1Oc1cccc(C2CC2)c1F` [b-120], the inhibition of growth at 25 ppm in assay [1], in assay [2] and in assay [3] was at least 75% each time.
`COC(=O)N(Cc1ccc(C)cc1C)NC(=O)c1nc(C)nnc1Oc1cccc(Br)c1` [b-129]: the inhibition of growth at 25 ppm in assay [1], in assay [2] and in assay [3] was at least 75% throughout.
`COC(=O)N(Cc1ccc(C)cc1C)NC(=O)c1cc(C)nnc1Oc1cccc(C(C)=O)c1` [b-131]: the inhibition of growth at 25 ppm in assay [2] and in assay [3] was at least 75% throughout.
As to `COC(=O)N(Cc1ccc(C)cc1C)NC(=O)c1cc(C)nnc1Oc1cccc(C(C)C)c1` [b-132], the inhibition of growth at 25 ppm in assay [2] and in assay [3] was at least 75% throughout.
For `COC(=O)N(Cc1ccc(C)cc1C)NC(=O)c1cc(C)nnc1Oc1cccc(OC(F)(F)F)c1` [b-133], the inhibition of growth at 25 ppm in assay [1], in assay [2] and in assay [3] was at least 75% each time.
On to `COC(=O)N(Cc1ccc(C)cc1C)NC(=O)c1cc(C)nnc1Oc1cccc(SC)c1` [b-136], for which the inhibition of growth at 25 ppm in assay [1], in assay [2] and in assay [3] was at least 75% throughout.
As for `COC(=O)N(Cc1ccc(C)cc1C)NC(=O)c1cc(C)nnc1Oc1cccc(N(C)C)c1` [b-137], the inhibition of growth at 25 ppm in assay [2] and in assay [3] was at least 75% throughout.
Turning to `COC(=O)N(Cc1ccc(C)cc1C)NC(=O)c1cnncc1Oc1cccc(C2CC2)c1F` [b-142, Methyl 2-(5-(3-cyclopropyl-2-fluorophenoxy)pyridazine-4-carbonyl)-1-(2,4-dimethylbenzyl)hydrazine-1-carboxylate], the inhibition of growth at 25 ppm in assay [1], in assay [2] and in assay [3] was at least 75% in each case.
`COC(=O)N(Cc1cnc2ccccc2c1)NC(=O)c1cc(C)nnc1Oc1cccc(C2CC2)c1F` [b-161]: the inhibition of growth at 25 ppm in assay [2] and in assay [3] was at least 75% each time.
Turning to `CSC(=O)N(Cc1ccc(C)cc1C)NC(=O)c1cc(C)nnc1Oc1cccc(C2CC2)c1F` [b-166, S-methyl 2-(3-(3-cyclopropyl-2-fluorophenoxy)-6-methylpyridazine-4-carbonyl)-1-(2,4-dimethylbenzyl)hydrazine-1-carbothioate], the inhibition of growth at 25 ppm in assay [1], in assay [2] and in assay [3] was at least 75% throughout.
For `COC(=O)N(NC(=O)c1cc(C)nnc1Oc1cccc(C2CC2)c1F)C1(c2ccc(Br)cc2)CC1` [b-179], the inhibition of growth at 25 ppm in assay [1], in assay [2] and in assay [3] was at least 75% throughout.
For the molecule `COC(=O)N(Cc1ccc(C)cc1C)NC(=O)c1cc(-c2ccc(F)cc2)ncc1Oc1cccc(C2CC2)c1F` [b-185], the inhibition of growth at 25 ppm in assay [1], in assay [2] and in assay [3] was at least 75% each time.
With `COC(=O)N(Cc1ccc(C)cc1C)NC(=O)c1cc(S(C)(=O)=O)ncc1Oc1cccc(C2CC2)c1F` [b-193], the inhibition of growth at 25 ppm in assay [1], in assay [2] and in assay [3] was at least 75% throughout.
Turning to `COC(=O)N(Cc1ccc(C)cc1C)N(C)C(=O)c1cc(C)nnc1Oc1cccc(C2CC2)c1F` [b-195], the inhibition of growth at 25 ppm in assay [1], in assay [2] and in assay [3] was at least 75% in each case.
On to `Cc1cc(C(=O)NN2CCCc3ccccc32)c(Oc2cccc(C3CC3)c2F)nn1` [b-198], for which the inhibition of growth at 25 ppm in assay [2] is at least 75%.
For the molecule `COC(=O)N(Cc1ccc(C)cc1C)NC(=O)c1c(Oc2cccc(Cl)c2F)cncc1Oc1cccc(Cl)c1F` [b-203], the inhibition of growth at 25 ppm in assay [2] and in assay [3] was at least 75% throughout.
`COC(=O)N(Cc1ccc(C)cc1C)NC(=O)c1cc2cncn2nc1Oc1cccc(C2CC2)c1` [b-210, Methyl 2-(2-(3-cyclopropylphenoxy)imidazo[1,5-b]pyridazine-3-carbonyl)-1-(2,4-dimethylbenzyl)hydrazine-1-carboxylate]: the inhibition of growth at 25 ppm in assay [2] and in assay [3] was at least 75% in each case.
Turning to `COC(=O)N(Cc1ccc(C)cc1C)NC(=O)c1c(C#N)cncc1Oc1cccc(C2CC2)c1F` [b-216], the inhibition of growth at 25 ppm in assay [2] and in assay [3] was at least 75% in each case.
`COC(=O)N(Cc1ccc(C)cc1C)NC(=O)c1cc(NC(=O)OC(C)(C)C)nnc1Oc1cccc(Cl)c1F` [b-218]: the inhibition of growth at 25 ppm in assay [1] is at least 75%.
As to `COC(=O)N(NC(=O)c1cc(C)nnc1Oc1cccc(C2CC2)c1F)c1ccc(C)s1` [b-222], in assay [2], the inhibition of growth at 25 ppm is at least 75%.
